Test results: doi:10.1101/801928v2 (biorxiv, 2019)

target: T1, HmtS (Streptomyces himastatinicus, UniProt G0LWB2); experiment: microscale thermophoresis, NT647-labelled enzyme; assay type: binding
T1 sequence (G0LWB2 2-397): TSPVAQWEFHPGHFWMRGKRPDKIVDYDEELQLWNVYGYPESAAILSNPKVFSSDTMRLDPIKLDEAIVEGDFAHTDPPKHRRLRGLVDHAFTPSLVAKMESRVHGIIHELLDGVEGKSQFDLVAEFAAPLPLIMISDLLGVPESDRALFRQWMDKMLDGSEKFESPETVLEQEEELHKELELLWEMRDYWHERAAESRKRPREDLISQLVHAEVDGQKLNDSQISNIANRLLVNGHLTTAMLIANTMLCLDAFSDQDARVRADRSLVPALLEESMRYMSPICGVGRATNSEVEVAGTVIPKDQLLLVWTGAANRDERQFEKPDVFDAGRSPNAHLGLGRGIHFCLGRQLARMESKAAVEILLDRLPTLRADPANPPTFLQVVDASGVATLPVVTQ

`Cc1cc2nc3c(=O)[nH]c(=O)nc-3n(C[C@H](O)[C@H](O)[C@H](O)COP(=O)(O)OP(=O)(O)OC[C@H]3O[C@@H](n4cnc5c(N)ncnc54)[C@H](O)[C@@H]3O)c2cc1C` [FAD] and `Cc1cc2nc3c(=O)[nH]c(=O)nc-3n(C[C@H](O)[C@H](O)[C@H](O)COP(=O)(O)O)c2cc1C` [FMN] are within 1.5-fold of each other in Kd: 43 µM for the first, 40 µM for the second.

Going from `NC(=O)C1=CN([C@@H]2O[C@H](COP(=O)(O)OP(=O)(O)OC[C@H]3O[C@@H](n4cnc5c(N)ncnc54)[C@H](OP(=O)(O)O)[C@@H]3O)[C@@H](O)[C@H]2O)C=CC1` [NADPH] to `Cc1cc2nc3c(=O)[nH]c(=O)nc-3n(C[C@H](O)[C@H](O)[C@H](O)CO)c2cc1C` [riboflavin], the Kd falls from 83 µM to 1.9 µM (44-fold).
